Consider 21 compounds from patent publication US20250228865A1, “COMPOUNDS FOR ENHANCING READ THROUGH OF GENES CONTAINING PREMATURE TERMINATION CODONS AND METHODS FOR MAKING AND USING THE SAME” (Sanofi US Services Inc., priority 2022, published 2025).

In this experiment the test system is CFTR R1162X. The experiment in a line: Functional CFTR channel activity, TECC-24 electrophysiology, 16HBE cells (CFTR R1162X readthrough). The format is cell-based, human. As to the method:
16HBE human bronchial epithelial cells were seeded onto Transwell 24-well filter inserts coated with human collagen type IV. Cells were seeded 7 days prior to functional testing at a density of 1.7×10^5 cells onto the “apical” chamber filter of the Transwell insert. Cells were grown as submerged cultures (200 μL apical/700 μL basolateral) in Minimal Essential Medium (MEM) containing 10% qualified Fetal Bovine Serum and 1% Penicillin/Streptomycin and incubated at 37° C. and 5% CO2. Growth media on cells was replenished with fresh media every 1-3 days prior to test agent treatment day. After 7 days in culture, the CFTR-mediated chloride (Cl^−) equivalent current (Ieq) of the 16HBE cells was recorded, which may typically form electrically tight epithelia with a transepithelial resistance (Rt) of 2000-6000 Ω·cm2 as described below. Forty-eight hours prior to electrophysiological measurements, fresh growth media containing the test agents was applied to both chambers separating filter bound epithelial monolayer.
On the day of electrophysiology studies, electrodes of a “Multi-(24-channel) transepithelial current clamp amplifier” (MTECC-24 (TECC-24 for short), EP Devices, Belgium) were soaked in an assay buffer (see below for composition) for at least 2 hours using 24-well Transwell plates without inserts. Cell culture media was replaced in the Transwell assay plates with assay buffer (see below) and the plates were mounted onto a custom-built automated robotic assay platform (Yamaha RCX240S controller) with heated plate holders set at 37° C. for 60 min. After equilibration, transepithelial potential difference (PD) and resistance (Rt) was monitoredat ˜5 min intervals using the TECC-24 transepithelial current clamp. Electrode potential differences were monitored for each pair of Ag/AgCl voltage electrodes by taking voltage measurements from a control (“blank”) plate with matching buffer solutions and 16HBE cells that were not treated with any test agent. PD values for each electrode pair were subtracted from the blank plate from that of the test plates at each time point. Ieq was calculated from the corrected PD values and Rt using Ohm's law. Ieq values were slope corrected to account for measurement drift over time using the equation: Slope corrected value=calculated Ieq−((time x slope)+y-intercept) with the slope and y-intercept calculated from the data points captured during the initial baseline period and following addition of the CFTR inhibitor.
The equivalent current (Ieq) traces associated with CFTR channel activation were plotted as baseline subtracted mean±standard deviation from 3-4 separate wells on the 24-well Transwell (n=3-4). There are 4 recording periods, with the first set of data points recorded baseline Ieq currents prior to sequential activation of available CFTR channels with forskolin (10 μM) and then in combination with potentiator VX-770/ivacaftor (1 μM). Recorded the last set of data points in the presence of CFTR inhibitor CFTRinh-172 (20 μM) to confirm that currents are mediated via activation of CFTR channels. The test agents and control/reference compounds were pre-diluted to 10-fold concentrations in assay buffer and added manually using a multi-channel pipette to both the basolateral and apical side of the membrane (test plates only). Employed CFTR-mediated changes in Ieq, (i.e. forskolin/VX-770 activated currents) to measure functional CFTR surface expression or treatment-related functional rescue of mutant CFTR.
The magnitude of test agent mediated enhancement of functional CFTR currents was calculated by comparing forskolin/VX-770 stimulated Ieq relative to baseline/CFTRinh-172 Ieq following 48 hour pretreatment with test agent(s) and normalizing to the forskolin/VX-770 stimulated Ieq determined following 48 hour pretreatment with a maximally effective concentration a reference control aminoglycoside agent (typically 110 μM G418). […]

The mark [1] stands for this setting: RTM 1 uM, no eRF3 modulator, ELX-02 100 uM.
Where [2] appears, read: RTM conc. —, eRF3 modulator (CC-90009) 1 uM, ELX-02 100 uM.
Setting [3] is: RTM 1 uM, eRF3 modulator (CC-90009) 1 uM, ELX-02 100 uM.

For the compound `OCc1cn(-c2ncc(OCc3c(Cl)cccc3Cl)cn2)cn1` [drawing 797], the “Currents (% of 110 μM G418 (Max effect))” value (RTM 0.5 uM, no eRF3 modulator, G418 10 uM) is 64 % of 110 μM G418 (Max effect). For the compound `OCc1cn(-c2ncc(OCc3c(Cl)cccc3Cl)cn2)cn1` [drawing 798], the “Currents (% of 110 μM G418 (Max effect))” value (RTM 0.5 uM, eRF3 modulator (CC-90009) 1 uM, G418 10 uM) was 472 % of 110 μM G418 (Max effect). With `OCc1cn(-c2ncc(OCc3c(Cl)cccc3Cl)cn2)cn1` [drawing 799], where the note is “RTM 0.5 uM, no eRF3 modulator, ELX-02 100 uM”, the “Currents (% of 110 μM G418 (Max effect))” value is recorded as 51 % of 110 μM G418 (Max effect). As for `OCc1cn(-c2ncc(OCc3c(Cl)cccc3Cl)cn2)cn1` [drawing 800], the “Currents (% of 110 μM G418 (Max effect))” value (RTM 0.5 uM, eRF3 modulator (CC-90009) 1 uM, ELX-02 100 uM) is given as 473 % of 110 μM G418 (Max effect).

On to `OCc1ccn(-c2ncc(OCc3c(Cl)cccc3Cl)cn2)n1` [drawing 801], for which the “Currents (% of 110 μM G418 (Max effect))” value under setting [1] is 102 % of 110 μM G418 (Max effect). Turning to `OCc1ccn(-c2ncc(OCc3c(Cl)cccc3Cl)cn2)n1` [drawing 802], the “Currents (% of 110 μM G418 (Max effect))” value under setting [2] is reported as 63 % of 110 μM G418 (Max effect). As to `OCc1ccn(-c2ncc(OCc3c(Cl)cccc3Cl)cn2)n1` [drawing 803], the “Currents (% of 110 μM G418 (Max effect))” value under setting [3] was 300 % of 110 μM G418 (Max effect). As for `Cc1cccc(C(F)(F)F)c1COc1ccc(-c2nc(CO)n[nH]2)cc1` [drawing 804], under setting [1], the “Currents (% of 110 μM G418 (Max effect))” value is recorded as 106 % of 110 μM G418 (Max effect). As to `Cc1cccc(C(F)(F)F)c1COc1ccc(-c2nc(CO)n[nH]2)cc1` [drawing 805], under setting [2], the “Currents (% of 110 μM G418 (Max effect))” value was 63 % of 110 μM G418 (Max effect). As to `Cc1cccc(C(F)(F)F)c1COc1ccc(-c2nc(CO)n[nH]2)cc1` [drawing 806], the “Currents (% of 110 μM G418 (Max effect))” value under setting [3] is recorded as 269 % of 110 μM G418 (Max effect). For `O=C1N[C@H](CO)CN1c1ccc(OCc2c(Cl)cccc2Cl)cn1` [drawing 807], the “Currents (% of 110 μM G418 (Max effect))” value under setting [1] is 70 % of 110 μM G418 (Max effect). On to `O=C1N[C@H](CO)CN1c1ccc(OCc2c(Cl)cccc2Cl)cn1` [drawing 808], for which the “Currents (% of 110 μM G418 (Max effect))” value under setting [2] was 63 % of 110 μM G418 (Max effect).

With `O=C1N[C@H](CO)CN1c1ccc(OCc2c(Cl)cccc2Cl)cn1` [drawing 809], under setting [3], the “Currents (% of 110 μM G418 (Max effect))” value was 266 % of 110 μM G418 (Max effect).

For `OCc1ncn(-c2ncc(OCc3c(Cl)cccc3C(F)(F)F)cn2)n1` [drawing 810], the “Currents (% of 110 μM G418 (Max effect))” value (RTM 3 uM, no eRF3 modulator, ELX-02 100 uM) is given as 102 % of 110 μM G418 (Max effect). Regarding `OCc1ncn(-c2ncc(OCc3c(Cl)cccc3C(F)(F)F)cn2)n1` [drawing 811], under setting [2], the “Currents (% of 110 μM G418 (Max effect))” value is given as 77 % of 110 μM G418 (Max effect). Regarding `OCc1ncn(-c2ncc(OCc3c(Cl)cccc3C(F)(F)F)cn2)n1` [drawing 812], the “Currents (% of 110 μM G418 (Max effect))” value (RTM 3 uM, eRF3 modulator (CC-90009) 1 uM, ELX-02 100 uM) is 288 % of 110 μM G418 (Max effect). Consider `OCc1cn(-c2ncc(OCc3c(Cl)cccc3Cl)cn2)cn1` [drawing 813], for which, under “RTM 0.5 uM, no eRF3 modulator, Paramomycin 2000 uM”, the “Currents (% of 110 μM G418 (Max effect))” value is listed as 7 % of 110 μM G418 (Max effect). For `OCc1cn(-c2ncc(OCc3c(Cl)cccc3Cl)cn2)cn1` [drawing 814], the “Currents (% of 110 μM G418 (Max effect))” value (RTM 0.5 uM, eRF3 modulator (CC-90009) 1 uM, Paramomycin 2000 uM) was 183 % of 110 μM G418 (Max effect). For the compound `Cc1cccc(C(F)(F)F)c1COc1ccc(N2CC(CO)OC2=O)cc1` (stereo not drawn) [drawing 815], the “Currents (% of 110 μM G418 (Max effect))” value (RTM 1 uM, no eRF3 modulator, G418 10 uM) is recorded as 76 % of 110 μM G418 (Max effect). In the case of `Cc1cccc(C(F)(F)F)c1COc1ccc(N2CC(CO)OC2=O)cc1` (stereo not drawn) [drawing 816], the “Currents (% of 110 μM G418 (Max effect))” value (RTM 1 uM, eRF3 modulator (CC-90009) 1 uM, G418 10 uM) was 423 % of 110 μM G418 (Max effect). `O=C1O[C@H](CO)CN1c1ccc(OCc2c(Cl)cccc2Cl)cc1` [drawing 817]: the “Currents (% of 110 μM G418 (Max effect))” value (RTM 5 uM, no eRF3 modulator, G418 10 uM) was 54 % of 110 μM G418 (Max effect).
